Earlier results on one compound are cited in patent US20070292887A1, “Immunohistochemical Methods” (Bayer Pharmaceuticals Corporation, priority 2003, published 2007).

One data set deals with SKOV3 xenografts. The following applies: SKOV3 xenografts in mice.
The test system of a further data set is MDA-MB-231 xenografts. The following applies: MDA-MB-231 xenografts in mice.
The subject of data set [1] is human cancer cell lines. The settings on record: in vivo.
The subject of data set [2] is human cancer cell lines. The settings on record: in vitro.
The test system of data set [3] is keratinocytes (normal skin). The settings on record: biopsies of normal skin prior to and following administration, humans.
For data set [4], the system named is SKOV (human ovarian cancer) cells. The following applies: preincubation of SKOV cells.

Where two headings read alike, the source gives them in different places.

Regarding `COc1cc2ncnc(Nc3ccc(F)c(Cl)c3)c2cc1OCCCN1CCOCC1` [ZD1839], in the data set with SKOV3 xenografts, the “constitutive ERK MAP kinase activation” value is reported as “inhibition” and the tumor growth rates entry is “reductions in tumor growth rates”. For the same compound, in the data set on MDA-MB-231 xenografts, the “constitutive ERK MAP kinase activation” value was “inhibition” and the tumor growth rates result was “reductions in tumor growth rates”. Further, in the data set with human cancer cell lines [1], the “proliferation of human cancer cell lines” value was “inhibited the proliferation”. Further, the “proliferation of human cancer cell lines” value in the data set on human cancer cell lines [2] is listed as “inhibited the proliferation”. Moreover, in data set [3], the “expression of Ki-67 in keratinocytes” value is recorded as “decreased expression” and the “expression of activated MAPK in keratinocytes” value is recorded as “decreased expression”. In data set [4], the “EGF-induced increases in activation of ERK MAP kinases” value is “block” and the “EGF-induced increases in activation of PKB/Akt” value is listed as “block”.
